We go through one compound from US11480576B2, “Conjugated oligomer-based macrocycles for live cell imaging” (THE FLORIDA INTERNATIONAL UNIVERSITY BOARD OF TRUSTEES, priority 2019, dated 2022).

The structures appear in SMILES notation.

The data set is described as follows: Photophysical properties of PEMCs (UV-vis absorption, fluorescence, QY). The class given is physicochemical. How it is done:
Chemicals, including solvents, were purchased from Fisher Scientific and used as received. Deuterated solvents were purchased from Cambridge Isotope Laboratories (Cambridge, Mass.). All chemicals and solvents were purchased and used without further purification. Nuclear magnetic resonance (NMR) spectra were recorded on a 400 MHz Avance Bruker NMR spectrometer. ^1H and ^13C NMR chemical shifts are given in ppm relative to Si(CH3)4. The mass spectrometric data were conducted on a Bruker Solarix FT-ICRMS. Data for crystal structure was obtained on a Bruker D8 Quest CMOS diffractometer. The crystal was kept at T=296(2) K during data collection. Using APEX3, the structure was solved with the ShelXT 2014/5 structure solution program, using the intrinsic phasing method. The model was refined with version 2016/6 of ShelXL using full matrix least squares on F^2 minimization, using the Olex2 GUI. Analytical thin layer chromatography (TLC) was performed on TLC Silica gel 60 F254. […] UV-vis spectra were recorded on a Varian Cary 50 Bio spectrophotometer. Fluorescence spectra were obtained using a FluoroLog-3 Spectrofluorometer (Jobin Yvon/Horiba). 9,10-diphenylanthracene (QY=1.0) in cyclohexane was used as a fluorescence standard for QY determination. Fourier transform infrared (FTIR) spectra were recorded on a PerkinElmer Spectrum 100 FTIR Spectrometer. […]

Turning to `COc1cc(C#Cc2ccc(C=O)cc2)c(OC)cc1C#Cc1ccc(C=O)cc1` [1a, 4,4′-((2,5-dimethoxy-1,4-phenylene)bis(ethyne-2,1-diyl))dibenzaldehyde], the “Extinction coefficient (ε)” value is 62700 M⁻¹ cm⁻¹. The “Quantum Yield (QY)” value (9,10-Diphenylanthracene (QY = 1.0) in cyclohexane as fluorescence standard) was 31%.
